Data from patent US20240239812A1, “MACROCYCLIC 2-ALLYLTETRAHYDROFURANS AS INHIBITORS OF MCL-1” (JANSSEN PHARMACEUTICA NV, priority 2021, published 2024).
Read-outs that look alike come from different tables or passages of the source.

How the values were obtained:
[1] = biological target: Myeloid Cell Leukemia 1 (Mcl-1) (Homo sapiens (Human), UniProt Q07820); experiment: Terbium labeled Mcl-1 HTRF binding assay, displacement of Cy5-labeled BIM BH3 peptide; conditions: 25 pM Tb-Mcl-1, 8 nM Cy5 Bim peptide, 60 minutes at room temperature, read-out: Tb-MCL1 Ki
Protocol: Terbium labeled Myeloid Cell Leukemia 1 (Mcl-1) homogeneous time-resolved fluorescence (HTRF) binding assay utilizing the BIM BH3 peptide (H2N—(C/Cy5Mal) WIAQELRRIGDEFN-OH) as the binding partner for Mcl-1.
This assay evaluated inhibition of the BH3 domain: Mcl-1 interaction by measuring the displacement of Cy5-labeled BIM BH3 peptide (H2N—(C/Cy5Mal) WIAQELRRIGDEFN-OH) in the HTRF assay format.
The following assay and stock buffers were prepared for use in the assay: (a) Stock buffer: 10 mM Tris-HCl, pH=7.5+150 mM NaCl, filtered, sterilized, and stored at 4° C.; and (b) 1× assay buffer, where the following ingredients were added fresh to stock buffer: 2 mM dithiothreitol (DTT), 0.0025% Tween-20, 0.1 mg/mL bovine serum albumin (BSA). The 1×Tb-Mcl-1+Cy5 Bim peptide solution was prepared by diluting the protein stock solution using the 1× assay buffer (b) to 25 pM Tb-Mcl-1 and 8 nM Cy5 Bim peptide.
Using the Acoustic ECHO, 100 nL of 100× test compound(s) were dispensed into individual wells of a white 384-well Perkin Elmer Proxiplate, for a final compound concentration of 1× and final DMSO concentration of 1%. Inhibitor control and neutral control (NC, 100 nL of 100% DMSO) were stamped into columns 23 and 24 of assay plate, respectively. Into each well of the plate was then dispensed 10 μL of the 1×Tb-Mcl-1+Cy5 Bim peptide solution. The plate was centrifuged with a cover plate at 1000 rpm for 1 minute, then incubated for 60 minutes at room temperature with plates covered.
The TR-FRET signal was read on an BMG PHERAStar FSX MicroPlate Reader at room temperature using the HTRF optic module (HTRF: excitation: 337 nm, light source: laser, emission A: 665 nm, emission B: 620 nm, integration start: 60 μs, integration time: 400 μs).
The BMG PHERAStar FSX MicroPlate Reader was used to measure fluorescence intensity at two emission wavelengths—665 nm and 620 nm—and report relative fluorescence units (RFU) for both emissions, as well as a ratio of the emissions (665 nm/620 nm)*10,000. The RFU values were normalized to percent inhibition as follows:
% inhibition(((NC−IC)−(compound−IC))/(NC−IC))*100
where IC (inhibitor control, low signal)=mean signal of 1× Tb-MCl-1+Cy5 Bim peptide+inhibitor control or 100% inhibition of Mcl-1; NC (neutral control, high signal)=mean signal 1×Tb-MCl-1+Cy5 Bim peptide with DMSO only or 0% inhibition
An 11-point dose response curve was generated to determine IC50 values (using GenData) based on the following equation:
where Y=% inhibition in the presence of X inhibitor concentration; Top=100% inhibition derived from the IC (mean signal of Mcl-1+inhibitor control); Bottom=0% inhibition derived from the NC (mean signal of Mcl-1+DMSO); Hillslope=Hill coefficient; and IC50=concentration of compound with 50% inhibition in relation to top/neutral control (NC).
Representative compounds of the present invention were tested according to the procedure as described above, with results as listed in the Table below (n.d. means not determined).

[2] = tested on: MOLP-8 human multiple myeloma cell line; experiment: Caspase-Glo 3/7 apoptosis induction assay in MOLP-8 cells; type: cell-based; conditions: caspase-3/7 activity, 2 hours at 37° C., averaged over all runs on all batches, read-out: MOLP8 AC50
Description: MCL-1 is a regulator of apoptosis and is highly over-expressed in tumor cells that escape cell death. The assay evaluates the cellular potency of small-molecule compounds targeting regulators of the apoptosis pathway, primarily MCL-1, Bfl-1, Bcl-2, and other proteins of the Bcl-2 family. Protein-protein inhibitors disrupting the interaction of anti-apoptotic regulators with BH3-domain proteins initiate apoptosis.
The Caspase-Glo® 3/7 Assay is a luminescent assay that measures caspase-3 and -7 activities in purified enzyme preparations or cultures of adherent or suspension cells. The assay provides a proluminescent caspase-3/7 substrate, which contains the tetrapeptide sequence DEVD. This substrate is cleaved to release aminoluciferin, a substrate of luciferase used in the production of light. Addition of the single Caspase-Glo® 3/7 Reagent in an “add-mix-measure” format results in cell lysis, followed by caspase cleavage of the substrate and generation of a “glow-type” luminescent signal.
This assay uses the MOLP-8 human multiple myeloma cell line, which is sensitive to MCL-1 inhibition.
Cell cultures were maintained between 0.2 and 2.0×10^6 cells/mL. The cells were harvested by collection in 50 mL conical tubes. The cells were then pelleted at 500 g for 5 mins before removing supernatant and resuspension in fresh pre-warmed culture medium. The cells were counted and diluted as needed.
The assay reagent was prepared by transferring the buffer solution to the substrate vial and mixing. The solution may be stored for up to 1 week at 4° C. with negligible loss of signal.
Compounds were delivered in assay-ready plates (Proxiplate) and stored at −20° C.
Assays always include 1 reference compound plate containing reference compounds. The plates were spotted with 40 nL of compounds (0.5% DMSO final in cells; serial dilution; 30 μM highest conc. 1/3 dilution, 10 doses, duplicates). The compounds were used at room temperature and 4 μL of pre-warmed media was added to all wells except column 2 and 23. The negative control was prepared by adding 1% DMSO in media. The positive control was prepared by adding the appropriate positive control compound in final concentration of 60 μM in media. The plate was prepared by adding 4 μL negative control to column 23, 4 μL positive control to column 2, and 4 μL cell suspension to all wells in the plate. The plate with cells was then incubated at 37° C. for 2 hours. The assay signal reagent is the Caspase-Glo solution described above, and 8 μL was added to all wells. The plates were then sealed and measured after 30 minutes.
The activity of a test compound was calculated as percent change in apoptosis induction as follows: […]

Sequence of Myeloid Cell Leukemia 1 (Mcl-1) (Q07820 whole entry): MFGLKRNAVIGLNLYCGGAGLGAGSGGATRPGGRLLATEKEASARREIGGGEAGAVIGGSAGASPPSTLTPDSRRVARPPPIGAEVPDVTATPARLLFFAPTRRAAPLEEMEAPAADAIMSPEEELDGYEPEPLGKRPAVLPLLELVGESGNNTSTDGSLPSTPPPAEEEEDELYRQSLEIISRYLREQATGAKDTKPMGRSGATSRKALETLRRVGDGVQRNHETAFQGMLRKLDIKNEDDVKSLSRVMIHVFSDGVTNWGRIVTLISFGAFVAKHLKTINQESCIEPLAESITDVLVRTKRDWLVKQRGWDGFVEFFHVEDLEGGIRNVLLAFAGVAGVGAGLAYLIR

Work on `C[C@@H]1[C@@H](C)C/C=C(\F)C(OCCN2CCOCC2)[C@@H]2OCC[C@H]2CN2C[C@@]3(CCCc4cc(Cl)ccc43)COc3ccc(cc32)C(=O)NS1(=O)=O` (single isomer, unassigned) [Compound 4] yielded a Ki [1] of 0.192 nM and an AC50 [2] of 314 nM.
For `C[C@@H]1[C@@H](C)C/C=C(\F)C(OCCN2CCOCC2)[C@@H]2OCC[C@H]2CN2C[C@@]3(CCCc4cc(Cl)ccc43)COc3ccc(cc32)C(=O)NS1(=O)=O` (single isomer, unassigned) [Compound 5], the Ki [1] was 0.445 nM and the AC50 [2] was 1100 nM.
`COc1nn(C)cc1C(=O)NS1(=O)=NC(=O)c2ccc3c(c2)N(C[C@@H]2CCO[C@H]2C(OC)/C=C/C[C@H](C)C1)C[C@@]1(CCCc2cc(Cl)ccc21)CO3` (single isomer, unassigned) [Compound 8] was tested, and the Ki [1] was 0.0231 nM and the AC50 [2] was 34 nM.
For `COc1nn(C)cc1C(=O)NS1(=O)=NC(=O)c2ccc3c(c2)N(C[C@@H]2CCO[C@H]2C(OC)/C=C/C[C@H](C)C1)C[C@@]1(CCCc2cc(Cl)ccc21)CO3` (single isomer, unassigned) [Compound 9], the Ki [1] was 0.05 nM and the AC50 [2] was 119 nM.
In the case of `COc1nn(C)cc1C(=O)NS1(=O)=NC(=O)c2ccc3c(c2)N(C[C@@H]2CCO[C@H]2C(OC)/C=C/C[C@H](C)C1)C[C@@]1(CCCc2cc(Cl)ccc21)CO3` (single isomer, unassigned) [Compound 10], the Ki [1] is reported as 0.401 nM and the AC50 [2] is reported as 453 nM.
`COc1nn(C)cc1C(=O)NS1(=O)=NC(=O)c2ccc3c(c2)N(C[C@@H]2CCO[C@H]2C(OC)/C=C/C[C@H](C)C1)C[C@@]1(CCCc2cc(Cl)ccc21)CO3` (single isomer, unassigned) [Compound 11] showed a Ki [1] of 0.94 nM and an AC50 [2] of 1310 nM.
For `COC1/C(F)=C/C[C@H](C)[C@@H](C)S(=O)(=O)NC(=O)c2cnc3c(n2)N(C[C@@H]2CCO[C@@H]12)C[C@@]1(CCCc2cc(Cl)ccc21)CO3` (single isomer, unassigned) [Compound 12], the Ki [1] was 5.23 nM and the AC50 [2] was 1220 nM.
For `COC1/C(F)=C/C[C@H](C)[C@@H](C)S(=O)(=O)NC(=O)c2cnc3c(n2)N(C[C@@H]2CCO[C@@H]12)C[C@@]1(CCCc2cc(Cl)ccc21)CO3` (single isomer, unassigned) [Compound 13], the Ki [1] was 35.5 nM and the AC50 [2] was 15200 nM.
`C[C@@H]1[C@@H](C)C/C=C/C(CO)[C@@H]2OCC[C@H]2CN2C[C@@]3(CCCc4cc(Cl)ccc43)COc3ccc(cc32)C(=O)NS1(=O)=O` (single isomer, unassigned) [Compound 14] showed a Ki [1] of 0.521 nM and an AC50 [2] of 1250 nM.
`C[C@@H]1[C@@H](C)C/C=C/C(CO)[C@@H]2OCC[C@H]2CN2C[C@@]3(CCCc4cc(Cl)ccc43)COc3ccc(cc32)C(=O)NS1(=O)=O` (single isomer, unassigned) [Compound 15] was tested, and the Ki [1] was 0.636 nM and the AC50 [2] was 2920 nM.
For `COCCN(CCOC)CC1(OC)/C(F)=C/C[C@H](C)[C@@H](C)S(=O)(=O)NC(=O)c2ccc3c(c2)N(C[C@@H]2CCO[C@H]21)C[C@@]1(CCCc2cc(Cl)ccc21)CO3` (single isomer, unassigned) [Compound 18], the Ki [1] was 0.096 nM and the AC50 ([2]; Homo sapiens, MOLP-8, 2 h) was 412 nM.
`C[C@@H]1[C@@H](C)C/C=C/C(O)[C@@H]2OCC[C@H]2CN2C[C@@]3(CCCc4cc(Cl)ccc43)COc3ccc(cc32)C(=O)NS1(=O)=O` (single isomer, unassigned) [Compound 19] was tested, and the Ki [1] was 0.717 nM and the AC50 ([2]; Homo sapiens, MOLP-8, 2 h) was 752 nM.
`C[C@@H]1[C@@H](C)C/C=C/C(OCCN2CCOCC2)[C@@H]2OCC[C@H]2CN2C[C@@]3(CCCc4cc(Cl)ccc43)COc3ccc(cc32)C(=O)NS1(=O)=O` (single isomer, unassigned) [Compound 20] showed a Ki [1] of 0.223 nM and an AC50 ([2]; Homo sapiens, MOLP-8, 2 h) of 616 nM.
For `C[C@@H]1[C@@H](C)C/C=C(\F)C(O)(CC(=O)N(C)C)[C@@H]2OCC[C@H]2CN2C[C@@]3(CCCc4cc(Cl)ccc43)COc3ccc(cc32)C(=O)NS1(=O)=O` (single isomer, unassigned) [Compound 21], the Ki [1] was 0.182 nM and the AC50 [2] was 436 nM.
Work on `C[C@@H]1[C@@H](C)C/C=C(\F)C(O)(CC(=O)N(C)C)[C@@H]2OCC[C@H]2CN2C[C@@]3(CCCc4cc(Cl)ccc43)COc3ccc(cc32)C(=O)NS1(=O)=O` (single isomer, unassigned) [Compound 22] yielded a Ki [1] of 0.981 nM and an AC50 [2] of 4830 nM.
Work on `COc1nn(C)cc1C(=O)NS1(=O)=NC(=O)c2ccc3c(c2)N(C[C@@H]2CCO[C@H]2C(OC)/C(F)=C/C[C@H](C)C1)C[C@@]1(CCCc2cc(Cl)ccc21)CO3` (single isomer, unassigned) [Compound 23] yielded a Ki [1] of 0.25 nM and an AC50 [2] of 2420 nM.
Molecule `COc1nn(C)cc1C(=O)NS1(=O)=NC(=O)c2ccc3c(c2)N(C[C@@H]2CCO[C@H]2C(OC)/C(F)=C/C[C@H](C)C1)C[C@@]1(CCCc2cc(Cl)ccc21)CO3` (single isomer, unassigned) [Compound 24] has a Ki [1] of 0.011 nM and an AC50 [2] of 44 nM.
Molecule `COc1nn(C)cc1C(=O)NS1(=O)=NC(=O)c2ccc3c(c2)N(C[C@@H]2CCO[C@H]2C(OC)/C(F)=C/C[C@H](C)C1)C[C@@]1(CCCc2cc(Cl)ccc21)CO3` (single isomer, unassigned) [Compound 25] has a Ki [1] of 0.025 nM and an AC50 [2] of 486 nM.
For `COc1nn(C)cc1C(=O)NS1(=O)=NC(=O)c2ccc3c(c2)N(C[C@@H]2CCO[C@H]2C(OC)/C(F)=C/C[C@H](C)C1)C[C@@]1(CCCc2cc(Cl)ccc21)CO3` (single isomer, unassigned) [Compound 26], the Ki [1] was 5.12 nM and the AC50 [2] was > 5000 nM.
In the case of `COc1nn(C)cc1C(=O)NS1(=O)=NC(=O)c2ccc3c(c2)N(C[C@@H]2CCO[C@H]2C(CN2CCN4CCOC[C@@H]4C2)(OC)/C(F)=C/C[C@H](C)C1)C[C@@]1(CCCc2cc(Cl)ccc21)CO3` (single isomer, unassigned) [Compound 27], the Ki [1] is reported as 0.048 nM and the AC50 [2] is reported as 424 nM.
For `CO[C@@]1(CN2CCN3CCOC[C@@H]3C2)/C(F)=C/C[C@H](C)[C@@H](C)S(=O)(=O)NC(=O)c2ccc3c(c2)N(C[C@@H]2CCO[C@H]21)C[C@@]1(CCCc2cc(Cl)ccc21)CO3` [Compound 6], the AC50 ([2]; Homo sapiens, MOLP-8, 2 h) was 69 nM.
Work on `CO[C@]1(CN2CCN3CCOC[C@@H]3C2)/C(F)=C/C[C@H](C)[C@@H](C)S(=O)(=O)NC(=O)c2ccc3c(c2)N(C[C@@H]2CCO[C@H]21)C[C@@]1(CCCc2cc(Cl)ccc21)CO3` [Compound 7] yielded an AC50 ([2]; Homo sapiens, MOLP-8, 2 h) of 88 nM.
